From US12503717B2, “Systems and methods for modeling disease and assessing adverse side effects of therapeutics therefor” (NOVOHEART INTERNATIONAL LIMITED, priority 2016, dated 2025)
Marks after values point to notes of the source that are not given here.

Assays:
[1] = system: hvCAS (human ventricular cardiac anisotropic sheet of HES2 hESC-derived ventricular cardiomyocytes); type: cell-based
Experimental: hvCAS preparations were loaded with di-8-ANEPPS (10 μM; D-3167; Molecular Probes)/[…] (0.04%; P-3000MP; Life Technologies) for 1 hour at 37° C. in DMEM-F12, followed by incubation at room temperature (RT) for 15 minutes in Blebbistatin (50 μM, B0560; Sigma-Aldrich) in Tyrode's solution. Tyrode's solution consists of 140 mM NaCl, 5 mM KCl, 1 mM MgCl2, 1 mM CaCl2, 10 mM D-glucose, and 10 mM HEPES at pH 7.4 to minimize potential interference of optical mapping signals by motion artifacts. The dye-loaded hvCAS preparations were bathed in Tyrode's solution which was maintained at 35-37° C. using a culture dish incubator (Warners Instruments). High-resolution optical mapping of AP and conduction properties was performed using a MiCam Ultima (SciMedia, CA, USA) with a 1× objective and a 1× condensing lens to yield a 10 mm by 10 mm field of view. Fluorescence imaging was performed using a halogen light filtered by a 515±35 nm band-pass excitation filter and a 590 nm high-pass emission filter. Data were collected at a sampling rate of 200 Hz and analyzed using BVAna software (SciMedia). A programmable stimulator (Master8; AMPI, Israel) was enrolled to deliver pacing stimuli (10V, 10-ms pulse duration) via a unipolar point-stimulation electrode (Harvard Apparatus, MA, USA) placed perpendicular to the hvCAS surface.
A point stimulation was applied at the center of an […] preparation following the schematic illustration (FIG. 2E) and steady state pacing (10 ms, 10 V) was first applied from 0.5 Hz through to 3 Hz (i.e., 30 to 180 bpm) with 0.5 Hz increments, unless there was a loss of 1:1 capture using Master-8 (AMPI, Israel). A standard (S1-S2) programmed electrical stimulation (PES) protocol was then introduced to further evaluate arrhythmogenicity, similar to what has been previously described^[15]. A train of eight S1 stimuli was delivered at 1.5 Hz followed by a premature extra stimulus (S2) with S1-S2 interval initiated at 550 ms and consecutively shortened in steps of 50 ms until capture failed.
A set of selection criteria was strictly followed before an hvCAS was employed for subsequent drug testing procedures to ensure fair comparison. In particular, the selection criteria included (1) observation of a consistent propagation signal across the whole field of view, (2) a maximum capture frequency of at least 1.5 Hz and (3) no re-entry at baseline. Drugs were then added at three cumulative doses to cover the therapeutic range and HERG IC50 was determined using a conventional technique known in the art.^[33] All drugs were purchased from Sigma-aldrich (MO, USA). […] Steady-state pacing and PES were repeated, as described above, for each dose unless re-entry occurred before the highest dose was applied. Action potential parameters and conduction properties were subsequently analyzed using Clampfit, with APD90 defined as the time from the peak to 90% repolarization. Data are individually presented as mean±SD and statistically compared using Student's t-test with p<0.05 considered statistically significant.

[2] = cited from earlier work

SMILES | arrhythmic risk compared to the respective vehicle control (FIG. 3H) [1] | Chirality of Re-entry: Anticlock-wise ([1]; human, pH 7.4) | Chirality of Re-entry: Clock-wise ([1]; human, pH 7.4) | Chirality of Re-entry: Figure-of-eight ([1]; human, pH 7.4) | Chirality of Re-entry: Multi-origin ([1]; human, pH 7.4) | Frequency of re-entries (Mean ± SD) ([1]; human, pH 7.4) | No. of Re-entry, 1st dose ([1]; human, pH 7.4) | No. of Re-entry, 2nd dose ([1]; human, pH 7.4) | No. of Re-entry, 3rd dose ([1]; human, pH 7.4) | fold increase in incidence rate or arrhythmic risk normalized to corresponding vehicle control ([1]; human, pH 7.4) | risk of arrhythmia or sudden death during hospitalization ([2]; nested case-control study) | effect on AP at relatively low doses [1] | fold increase in risk compared to the vehicle control (DMSO) ([1]; human, 300 nM, pH 7.4) | reentrant events at relatively low doses ([1]; human, pH 7.4) | serum concentration associated with clinical TdP ([2]; serum) | clinical QT prolongation / TdP liability ([2]; human, in vivo)
CC(=O)Oc1ccccc1C(=O)O [ASP, aspirin] | lower risk |  |  |  |  |  |  |  |  |  |  |  |  |  |  | 
COc1cc(N)c(Cl)cc1C(=O)NC1CCN(CCCOc2ccc(F)cc2)CC1OC (stereo not shown) [CISA, cisapride] | elevated risk | 5 | 3 | 0 | 1 | 1.18 ± 0.40 | 2^[a] | 4^[a] | 3 | 2.7 fold | doubling or tripling |  |  |  |  | 
O=C(NCC1CCCCN1)c1cc(OCC(F)(F)F)ccc1OCC(F)(F)F (stereo not shown) [FLE, flecainide] | elevated risk | 3 | 1 | 1 | 0 | 1.92 ± 0.37 | 4^[a] | 1^[a] | 0 |  |  |  |  |  |  | 
CCN(CC)CCNC(=O)c1ccc(N)cc1 [PROC, procainamide] | elevated risk | 3 | 0 | 0 | 0 | 1.53 ± 0.42 | 1^[a] | 2 | 0 | 2.3 fold |  |  |  |  |  | 
CC(C)(C)c1ccc(C(O)CCCN2CCC(C(O)(c3ccccc3)c3ccccc3)CC2)cc1 (stereo not shown) [TERF, terfenadine] | elevated risk | 3 | 1 | 0 | 0 | 1.04 ± 0.31 | 0 | 0 | 4 |  |  | no apparent effects on AP | 1.2 fold | 0 of 16 | 120 nM | 
Cc1cccc(C)c1NC(=O)C(C)N (stereo not shown) [TOC, tocainide] | lower risk | 0 | 1 | 1 | 0 | 1.34 ± 0.52 | 0 | 1^[a] | 1 | 0.7 fold |  |  |  |  |  | 
COc1ccccc1OCC(O)CN1CCN(CC(=O)Nc2c(C)cccc2C)CC1 (stereo not shown) [ranolazine] |  |  |  |  |  |  |  |  |  |  |  |  |  |  |  | reasonably safe from causing TdP
